# Assay results published in patent publication US8975250B2, “5 oxo-5,8-dihydropyrido[2,3-d]pyrimidine derivatives as CaMKII kinase inhibitors for treating cardiovascular diseases” (SANOFI, priority 2010, dated 2015).
# pIC50: −log10 of the molar value.
# Biological target: CaMKIIδ (Homo sapiens (Human), UniProt Q13557)
# Assay: radioactive test on the recombinant CaMKIIδ enzyme (ATP-γ33P incorporation into Autocamtide-2)
# Format: biochemical
# Settings: recombinant CaMKIIδ 0.37 nM, 10 μM ATP, 100 μM Autocamtide-2, two hours at 37°C
# Description: The compounds according to the invention were tested in vitro for their capacity to inhibit the kinase function of calcium/calmodulin-dependent protein kinase II delta (CaMKIIδ). CaMKIIδis an intracellular serine/threonine kinase. It has an enzymatic domain that is capable of using ATP to autophosphorylate. Its kinase function allows it to use ATP to phosphorylate its substrates on the serines and/or threonines. Several enzymatic and cellular tests are used to evaluate the activity of the products with respect to the kinase function of CaMKIIδ. The kinase activity of CaMKIIδis evaluated by means of a radioactive test on the recombinant CaMKIIδenzyme. The amount of ATP-γ33P incorporated into the specific substrate Autocamtide-2 during its phosphorylation by CaMKIIδis measured. The effect of the products is quantified by the concentration of product that inhibits the total activity of CaMKIIδby 50% (50% inhibitory concentration=IC50). For the determination of the IC50 values, the product is diluted in 100% of DMSO to obtain a 10 mM stock solution. The concentration range tested during the radioactive test ranges from 3 to 10 000 nM with a final concentration in the test of 1% DMSO. This concentration range may, for the most powerful compounds, be extended to 0.1 nM. On the day of the operation, 5 μl of the compounds are deposited in each well of a 96-well plate at 10 times the concentration of that to be tested. Each concentration is tested in duplicate on the same plate. The negative controls (0% activity) and positive controls (100% activity) receive 5 μL of 10% DMSO solution. A reaction premix containing the 1×kinase buffer and an ATP-MgCl2 mixture is prepared. Extemporaneously, a mixture containing the substrate Autocamtide-2 (100 μM) with calmodulin and calcium, and the solution of enzyme CaMKIIδ, is added to the premix. 45 μL of this mixture are immediately deposited per well. The final concentrations in the 50 μL final volume are as follows: compound 1X, 0.37 nM of CaMKIIδ(Invitrogen reference PV3373), 10 μM of ATP (1 μCi per well), 100 μM of Autocamtide-2, […] of calmodulin, 15 mM MgCl2, 400 μM CaCl2, 10 mM β-glycerophosphate, and 1% of DMSO. Two negative controls are prepared on each plate, a first without enzyme CaMKIIδ, and a second without substrate Autocamtide-2; these two elements are replaced with water. The plate is then incubated for two hours at 37°C. with gentle shaking. The reaction is stopped by adding 20 μL per well of H3PO4 solution. The 50 μL of each well are transferred onto a Whatman P81 filter. After rinsing twice with H3PO4 (150 μl/well per wash), followed by two rinses with 150 μL of H2O, 50 μL of scintillant are added per well. The amount of phosphorylated substrate is detected by means of a liquid scintillation counter. The inhibitory activity toward CaMKIIδis given by the concentration that inhibits 50% of the activity of CaMKIIδ. The IC50 values are generally between 10 μM and 10^−5 μM. In the table below, the IC50 values measured for several compounds (I) of the invention are presented as examples.
row,SMILES,pIC50
1,"CCn1c(N)c(C(N)=O)c(=O)c2cnc(Nc3ccc(C(=O)N4CCN(C)CC4)cc3)nc21 [compound 4, 7-Amino-8-ethyl-2-[4-(4-methylpiperazine-1-carbonyl)phenylamino]-5-oxo-5,8-dihydropyrido[2,3-d]pyrimidine-6-carboxamide]",6.59
2,"CCn1c(N)c(C(N)=O)c(=O)c2cnc(Nc3ccc(C4CCN(C5CC5)CC4)cc3OC)nc21 [compound 29, 7-Amino-2-[4-(1-cyclopropylpiperid-4-yl)-2-methoxyphenylamino]-8-ethyl-5-oxo-5,8-dihydropyrido[2,3-d]pyrimidine-6-carboxamide]",7.77
3,"CCn1c(N)c(C(N)=O)c(=O)c2cnc(Nc3ccc(C4CCN(CCC(F)(F)F)CC4)cc3OC)nc21 [compound 35, 7-Amino-8-ethyl-2-{2-methoxy-4-[1-(3,3,3-trifluoropropyl)piperid-4-yl]phenylamino}-5-oxo-5,8-dihydropyrido[2,3-d]pyrimidine-6-carboxamide]",7.66
4,"CC(C)Cn1c(N)c(C(N)=O)c(=O)c2cnc(Nc3ccc(CCN4CCOCC4)cc3)nc21 [compound 52, 7-Amino-8-isobutyl-2-[4-(2-morpholin-4-ylethyl)phenylamino]-5-oxo-5,8-dihydropyrido[2,3-d]pyrimidine-6-carboxamide]",6.86
5,"CN(C)Cc1ccc(Nc2ncc3c(=O)c(C(N)=O)c(N)n(CC(F)(F)F)c3n2)cc1 [compound 60, 7-Amino-2-(4-dimethylaminomethylphenylamino)-5-oxo-8-(2,2,2-trifluoroethyl)-5,8-dihydropyrido[2,3-d]pyrimidine-6-carboxamide]",6.18

# Results, then the compound that gave them:
row,pIC50,SMILES
1,8.10,"CCn1c(N)c(C(N)=O)c(=O)c2cnc(Nc3ccc(N4CCC(N5CCCC5)CC4)c(Cl)c3)nc21 [compound 61, 7-Amino-2-[3-chloro-4-(4-pyrrolidin-1-ylpiperid-1-yl)phenylamino]-8-ethyl-5-oxo-5,8-dihydropyrido[2,3-d]pyrimidine-6-carboxamide]"
2,7.43,"CCn1c(N)c(C(N)=O)c(=O)c2cnc(Nc3ccc4c(c3)CCNC4)nc21 [compound 75, 7-Amino-8-ethyl-5-oxo-2-(1,2,3,4-tetrahydroisoquinolin-6-ylamino)-5,8-dihydropyrido[2,3-d]pyrimidine-6-carboxamide]"
3,6.93,"CCn1c(N)c(C(N)=O)c(=O)c2cnc(Nc3ccc(OC4CCN(C)CC4)cc3)nc21 [compound 76, 7-Amino-8-ethyl-2-[4-(1-methylpiperid-4-yloxy)phenylamino]-5-oxo-5,8-dihydropyrido[2,3-d]pyrimidine-6-carboxamide]"
4,6.57,"CCn1c(N)c(C(N)=O)c(=O)c2cnc(Nc3cccc(CN(C)C)c3)nc21 [compound 78, 7-Amino-2-(3-dimethylaminomethylphenylamino)-8-ethyl-5-oxo-5,8-dihydropyrido[2,3-d]pyrimidine-6-carboxamide]"
5,6.40,"CCc1cc(N2CCN(C3CC3)CC2)ccc1Nc1ncc2c(=O)c(C(N)=O)c(N)n(CC)c2n1 [compound 96, 7-Amino-2-[4-(4-cyclopropylpiperazin-1-yl)-2-ethylphenylamino]-8-ethyl-5-oxo-5,8-dihydropyrido[2,3-d]pyrimidine-6-carboxamide]"
